Laboratory results: paper PMC9832530 (FASEB BioAdvances, 2022)

Target: T1, drFtsZ (FtsZWT) (Deinococcus radiodurans, UniProt Q9RWN5)
T1 sequence (Q9RWN5 1-371): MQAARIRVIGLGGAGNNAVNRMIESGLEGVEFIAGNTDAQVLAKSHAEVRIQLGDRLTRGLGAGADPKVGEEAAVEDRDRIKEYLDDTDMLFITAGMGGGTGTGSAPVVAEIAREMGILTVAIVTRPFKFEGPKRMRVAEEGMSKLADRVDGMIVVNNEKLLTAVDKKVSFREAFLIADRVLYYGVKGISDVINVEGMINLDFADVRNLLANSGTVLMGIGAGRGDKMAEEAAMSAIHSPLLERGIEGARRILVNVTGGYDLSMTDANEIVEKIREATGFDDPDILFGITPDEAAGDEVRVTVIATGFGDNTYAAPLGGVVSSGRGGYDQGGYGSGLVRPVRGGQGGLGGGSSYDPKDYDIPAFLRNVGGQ
Assay: GTPase, [alpha-32P]-GTP to GDP by TLC
Type: biochemical
Settings: 20 mM Tris-HCl pH 7.5, 75 mM KCl, MgCl2, 37 °C, 20 min; labelled compound

Nc1nc2c(ncn2[C@@H]2O[C@H](COP(=O)(O)OP(=O)(O)OP(=O)(O)O)[C@@H](O)[C@H]2O)c(=O)[nH]1 [GTP]
GTPase, [alpha-32P]-GTP to GDP by TLC: The GTPase activity of S235 and S335 mutants were estimated using thin‐layer chromatography
